Where a name gives a salt, the structure may show the parent alone.
Experiments:
murine TRPC6 ion channel = biological target: T1, murine TRPC6 ion channel (Mus musculus, UniProt Q61143); conditions: Inoue et al, Circ. Res. (2001) 88: 325-332; cited from earlier work
T1 sequence (Q61143 1-930): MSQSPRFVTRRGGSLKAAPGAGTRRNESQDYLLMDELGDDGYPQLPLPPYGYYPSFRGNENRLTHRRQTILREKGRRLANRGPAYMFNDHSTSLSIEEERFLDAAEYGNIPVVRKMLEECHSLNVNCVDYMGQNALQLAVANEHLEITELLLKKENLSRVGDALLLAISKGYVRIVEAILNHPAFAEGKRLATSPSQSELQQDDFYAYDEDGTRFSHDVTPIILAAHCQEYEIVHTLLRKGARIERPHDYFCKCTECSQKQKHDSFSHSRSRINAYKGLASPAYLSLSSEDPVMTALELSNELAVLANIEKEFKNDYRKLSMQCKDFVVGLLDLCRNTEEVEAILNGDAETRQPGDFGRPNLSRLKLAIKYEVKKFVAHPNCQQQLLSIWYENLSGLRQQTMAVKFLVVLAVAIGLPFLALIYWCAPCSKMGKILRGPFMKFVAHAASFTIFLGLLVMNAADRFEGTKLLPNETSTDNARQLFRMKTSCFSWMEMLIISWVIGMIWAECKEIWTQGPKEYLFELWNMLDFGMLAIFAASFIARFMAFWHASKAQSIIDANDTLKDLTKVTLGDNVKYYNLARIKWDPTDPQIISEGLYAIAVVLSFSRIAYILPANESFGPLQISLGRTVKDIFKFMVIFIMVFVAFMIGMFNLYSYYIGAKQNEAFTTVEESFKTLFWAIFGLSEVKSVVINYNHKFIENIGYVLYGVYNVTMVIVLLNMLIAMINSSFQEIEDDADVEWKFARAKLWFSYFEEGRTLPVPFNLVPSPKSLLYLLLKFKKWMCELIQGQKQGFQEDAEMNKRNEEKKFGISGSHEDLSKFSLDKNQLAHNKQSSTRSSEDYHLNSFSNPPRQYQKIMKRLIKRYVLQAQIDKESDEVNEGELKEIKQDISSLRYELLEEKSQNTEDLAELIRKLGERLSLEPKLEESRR

[1] = system: receptor-mediated calcium entry (RMCE); conditions: Merritt et al, Biochem. J. (1990) 271: 515-522; cited from earlier work
human TRPC6 ion channel = biological target: T2, human TRPC6 ion channel (Homo sapiens, UniProt Q9Y210); assay: FLIPR membrane potential assay, carbachol-stimulated TRPC6-expressing cells (TRPC6 clone 14); assay type: cell-based; conditions: for Mean fluorescence response calculated as (Max − Min)/Min: 10 min pre-treatment, n=10 wells, control 1.219
T2 construct: expressed in transfected cells; host or cells: TRPC6 clone 14 cells
T2 sequence (Q9Y210 1-931): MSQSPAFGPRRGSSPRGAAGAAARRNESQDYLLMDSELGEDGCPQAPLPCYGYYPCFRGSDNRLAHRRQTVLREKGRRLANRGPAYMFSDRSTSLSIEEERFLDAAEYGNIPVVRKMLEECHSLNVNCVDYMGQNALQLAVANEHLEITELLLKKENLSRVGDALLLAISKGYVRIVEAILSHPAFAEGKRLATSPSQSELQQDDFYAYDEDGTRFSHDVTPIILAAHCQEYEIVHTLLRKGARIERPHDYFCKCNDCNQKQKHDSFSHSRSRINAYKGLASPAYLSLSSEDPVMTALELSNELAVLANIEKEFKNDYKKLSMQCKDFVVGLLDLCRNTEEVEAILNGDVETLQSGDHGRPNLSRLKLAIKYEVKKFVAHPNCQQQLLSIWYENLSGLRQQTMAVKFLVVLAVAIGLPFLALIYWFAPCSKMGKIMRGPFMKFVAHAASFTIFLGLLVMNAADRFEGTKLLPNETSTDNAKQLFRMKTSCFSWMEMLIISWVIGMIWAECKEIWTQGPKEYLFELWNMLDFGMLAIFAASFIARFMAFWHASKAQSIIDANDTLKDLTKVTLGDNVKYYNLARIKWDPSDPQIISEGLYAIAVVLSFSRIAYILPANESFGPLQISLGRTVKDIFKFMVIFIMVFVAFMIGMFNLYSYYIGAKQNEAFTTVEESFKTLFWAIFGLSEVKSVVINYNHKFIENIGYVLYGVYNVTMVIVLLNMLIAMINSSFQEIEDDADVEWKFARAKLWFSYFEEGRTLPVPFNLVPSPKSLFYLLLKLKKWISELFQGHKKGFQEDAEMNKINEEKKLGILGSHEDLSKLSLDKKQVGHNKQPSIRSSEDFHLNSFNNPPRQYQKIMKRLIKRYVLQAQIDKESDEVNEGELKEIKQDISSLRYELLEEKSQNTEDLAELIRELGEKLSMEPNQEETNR
Experimental: In a suitable test for any inhibition of the TRPC6 channel, cells that express an endogenous G protein-coupled calcium mobilising receptor e.g. muscarinic acetylcholine receptor that can activate TRPC6 channels are used and a receptor agonist e.g. muscarinic acetylcholine receptor agonist is added to stimulate the TRPC6 channels. The cells are treated with the candidate substance prior to addition of the receptor agonist. That should produce an increase in fluorescence, but the magnitude of the increase will be reduced if the candidate substance inhibits the TRPC6 channels. Any change in fluorescence can be measured using suitable equipment, for example a fluorescence imaging plate reader.
An assay for screening candidate or test compounds is performed using cells stably-transfected with TRPC6 and expressing a functional TRPC6 channel e.g. the mammalian cell line HEK 293 which expresses an endogenous muscarinic acetylcholine receptor which can activate TRPC6 channels. […] The TRPC6-expressing cells are seeded in 96-well black-walled flat-bottomed microplates in a plating volume of 100 μl and grown to confluence for the assay. To prepare the cells for the assay, the cell culture medium is removed and 100 μl of loading buffer is added to each well. The loading buffer consists of FLIPR® membrane potential dye diluted to the required assay concentration in a buffer composed of 140 mM-NaCl, 0.15 mM CaCl2, 3.3 mM KH2PO4, 1.2 mM MgCl2, 10 mM D-glucose and 20 m M HEPES, at pH7.4 and containing 0.03 mM BAPTA-AM. The plates are incubated at 37° C. for 20 minutes prior to commencing the assay. For the detection of inhibitors of TRPC6, test agents are added to each well either before or after stimulation with the muscarinic acetylcholine receptor agonist carbachol, which activates the TRPC6 channel. The expected effect of an inhibitor would be to reduce the carbachol-stimulated increase in fluorescence. Activators of TRPC6 may be detected by substituting carbachol for a test agent, where activators will stimulate an increase in fluorescence.
TRPC6 clone 14 cells pre-treated with 1-[b-[3-(4-methoxyphenyl)propoxy]-4-methoxyphenethyl]-1H-imidazole.HCl for 10 minutes are stimulated with carbachol (10 μM) in accordance with the assay described in Example 2. The fluorescence is measured prior to carbachol addition (minimum response, i.e. Min.) and when the carbachol-stimulated increase in fluorescence has reached a maximum (maximum response, i.e. Max.). It can be seen in table 1 below that the reduced fluorescence responses are observed in compound treated-cells compared to the control response in the absence of compound.
The data is calculated as a (Max−Min)/Min response. Each concentration of 1-[b-[3-(4-methoxyphenyl)propoxy]-4-methoxyphenethyl]-1H-imidazole.HCl is the mean±SEM (standard error of the mean) of n=10 wells.

Mean fluorescence response calculated as (Max − Min)/Min (human TRPC6 ion channel; compound concentration 0.1 μM, carbachol 10 μM): 1.172 | Mean fluorescence response calculated as (Max − Min)/Min (human TRPC6 ion channel; compound concentration 1.0 μM, carbachol 10 μM): 0.977 | Mean fluorescence response calculated as (Max − Min)/Min (human TRPC6 ion channel; compound concentration 03 μM (so in the source), carbachol 10 μM): 1.128 | Mean fluorescence response calculated as (Max − Min)/Min (human TRPC6 ion channel; compound concentration 3.0 μM, carbachol 10 μM): 0.699 | Mean fluorescence response calculated as (Max − Min)/Min (human TRPC6 ion channel; compound concentration 10.0 μM, carbachol 10 μM): 0.278 | Mean fluorescence response calculated as (Max − Min)/Min (human TRPC6 ion channel; compound concentration 30.0 μM, carbachol 10 μM): 0.122 | IC50 (human TRPC6 ion channel; mean±S.E.M. from n=4 experiments, carbachol 10 μM, read-out: calculated mean IC50 value): 4.9 ± 0.8 µM | activity of the human TRPC6 ion channel (human TRPC6 ion channel; result in words): inhibits
Structure (SMILES): COc1ccc(CCCOC(Cn2ccnc2)c2ccc(OC)cc2)cc1 (stereo not shown) [1-[b-[3-(4-methoxyphenyl)propoxy]-4-methoxyphenethyl]-1H-imidazole.HCl]
murine TRPC6 ion channel block (murine TRPC6 ion channel): block | receptor-mediated calcium entry (RMCE) [1]: inhibit
